Source: patent US20180289709A1, “METHODS OF TREATING INFLAMMATION” (priority 2010, published 2018)
Entries after “also recorded” stand apart in the source; their conditions may differ. Read-outs that look alike come from different tables or passages of the source.

Key:
[1] = tested on: BMDCs; assay: qPCR of antiviral and inflammatory gene mRNAs in TLR-stimulated BMDCs; conditions: for transcription of mRNAs for antiviral cytokines (Ifnb1, Cxcl10): inhibitor 1 hour prior to stimulation
[2] = tested on: BMDCs; assay: Genome-wide mRNA profiles (microarray) of BMDCs treated with BI 2536 or DMSO before LPS or poly(I:C); type: cell-based, mouse; conditions: for antiviral genes among genes repressed by BI 2536 compared to DMSO: at least 3-fold change
[3] = tested on: BMDCs; assay: IFN-β ELISA of BMDC culture supernatants; type: cell-based, mouse; conditions: BMDC supernatant, LPS 6 h; 1 μM
Description: Cell culture supernatants were assayed using a sandwich ELISA kit for mouse IFN-β (PBL Biomedical Laboratories).

[4] = tested on: BMDCs; assay: BMDC viability (Alamar blue); type: cell-based, mouse; conditions: treatment pre-stimulation
[5] = tested on: BMDCs; assay: Cell cycle analysis (propidium iodide DNA content, flow cytometry); type: cell-based, mouse; conditions: propidium iodide DNA content after 0, 6, 12 h treatment
Description: Cells were fixed in ethanol, washed, and stained for 30 min at room temperature (RT) with propidium iodide (100 μg/mL) prepared in PBS (calcium- and magnesium-free) supplemented with RNAse A (2 mg/mL; Novagen) and triton X-100 (0.1%). Samples were analyzed for DNA content using an Accuri C6 flow cytometer (Accuri) and data was processed using the FlowJo software (Treestar).

[6] = tested on: IRF3; assay: IRF3 nuclear translocation by confocal microscopy, BMDCs on silicon nanowires; type: cell-based, mouse
Description: (§1) BMDCs were plated on top of etched silicon nanowires (Si NWs) coated with small molecules (Shalek et al., 2010). After 24 hours, cells were stimulated with LPS or poly(I:C), and then fixed in 4% formaldehyde in PBS (RT, 10 min). After fixation, each sample was permeabilized with 0.25% Triton-X 100 in PBS (RT, 10 min), incubated with Image-iT FX Signal Enhancer (RT, 30 min), and then blocked with 10% goat serum and 0.25% Triton-X 100 in PBS (RT, 1 hour). After washing, the samples were placed in 3% IgG-Free BSA & 0.25% Triton-X 100 in PBS that contained primary antibodies against either IRF3 or NF-κB P65 (1:175 dilution) and then rocked overnight at 4° C. The following day, the samples were washed with PBS and then incubated with an Alexa Fluor labeled secondary antibody (1:250 dilution) in 3% IgG-Free BSA & 0.25% Triton-X 100 in PBS (RT, 60 min). After washing with PBS, the samples were counterstained with 300 ng/mL of DAPI in PBS (RT, 30 min). For each experiment, every stimulus-molecule combination was prepared in triplicate. Once fixed, samples were imaged using an upright confocal microscope (Olympus). For each captured image, the nuclear fraction of the fluorescent protein was calculated after identifying nuclear boundaries using DAPI. Finally, distributions for this quantity across different conditions were compared using a one-way ANOVA analysis.

[7] = tested on: NF-κB p65; assay: NF-κB p65 nuclear translocation by confocal microscopy, BMDCs on silicon nanowires; type: cell-based, mouse; conditions: nanowire-mediated delivery; LPS 30 min
Description: as §1

[8] = tested on: conventional DCs (GM-CSF-induced BMDCs); type: cell-based, mouse
[9] = tested on: VSV; type: in vivo, mouse; conditions: mice, VSV intra-footpad, 6 hours post-infection
[10] = tested on: primary mouse lung fibroblasts (MLFs); conditions: 1 μM
[11] = mouse, in vivo; cited from earlier work
[12] = humans (Mross et al., 2008); cited from earlier work
[13] = tested on: BMDCs; assay: SILAC-based phosphoproteomics of LPS-stimulated BMDCs pre-treated with BI 2536 versus DMSO
[14] = tested on: pDCs (Flt3L-induced BMDCs); assay: qPCR and nCounter mRNA measurement in plasmacytoid DCs stimulated with CpG-A, CpG-B or EMCV; conditions: 1 μM
[15] = BMDCs, LPS, increasing amounts of BI 2536, dose-dependent
[16] = DCs stimulated with LPS, poly(I:C) or Pam3CSK4, 1 μM

## COc1cc2ncn(-c3cc(OCc4ccccc4C(F)(F)F)c(C(N)=O)s3)c2cc1OC [5-(5,6-Dimethoxy-1H-benzimidazol-1-yl)-3-[[2-(trifluoromethyl)phenyl]methoxy]-2-thiophenecarboxamide]
[1]; BMDCs, LPS
  transcription of mRNAs for antiviral cytokines (Ifnb1, Cxcl10): abrogate

## CC[C@@H]1C(=O)N(C)c2cnc(Nc3ccc(C(=O)NC4CCN(C)CC4)cc3OC)nc2N1C1CCCC1 [BI 2536]
[2]; LPS
  antiviral genes among genes repressed by BI 2536 compared to DMSO: 67/194
[2]; downregulated 3-fold upon LPS or poly(I:C) stimulation
  unique LPS- and/or poly(I:C)-induced genes repressed: 311 genes
[2]; poly(I:C), P<1×10^−71, hypergeometric test
  antiviral genes among genes repressed by BI 2536 compared to DMSO: 99/193
[3]
  secreted IFN-β (ELISA): reduced; also recorded: strongly inhibits
[4]
  viability of BMDCs: neither impacted
[5]
  cell cycle state of BMDCs: neither impacted
[6]; nanowire-mediated delivery, poly(I:C) 2 h or LPS 45 min, dose-dependent
  IRF3 nuclear translocation: inhibited
[6]; poly(I:C) 2 h, lesser extent than nanowire-mediated delivery
  IRF3 translocation, delivery in solution: decreased
[7]
  NF-κB p65 localization: did not affect
[8]
  mRNA level of Cxcl1: neither affected
[8]; 1 μM
  transcription of antiviral genes (Ifnb1 and Cxcl10): inhibited
[9]
  Ifna2 mRNA (type I IFN α2) in popliteal lymph nodes: inhibits
  VSV replication in the lymph node (VSV RNA levels): rapidly increased
[9]; 500 μg i.v. and 50 μg footpad
  antiviral cytokine mRNA (Ifnb1, Cxcl10) in popliteal lymph nodes: strongly suppressed; also recorded: inhibits
[10]
  drug-induced toxicity (cell viability, CellTiter-Glo): not due to drug-induced toxicity
  interferon production (Ifnb1 mRNA): failed to produce interferon
[11]
  tolerability: good tolerability
[12]
  tolerability: good tolerability
[1]; BMDCs, LPS, increasing amounts of BI 2536
  Cxcl1 expression (qPCR): not significantly affected
[1]; [15]
  Cxcl10 mRNA level (qPCR): reduced
  Ifnb1 mRNA level (qPCR): reduced
[1]; [16]
  expression of 12 well-studied antiviral genes (qPCR): strongly inhibited
  inflammatory gene expression (qPCR): remained largely unaffected
[13]; LPS
  phosphorylation levels of Jun family cell cycle regulators (Jund): decreased
  phosphorylation levels of mitotic kinases Nek6 and Nek7: decreased
  phosphorylation levels of proteins in the TBK1/IKK-ε/IRF3 axis: unchanged
[13]; LPS 30 or 120 min, 1 μM
  distinct proteins from which the changed phosphopeptides derive: 413 proteins
  phosphopeptides with significant (P<0.001) change in level: 510 phosphopeptides
[14]; 6 h
  CpG-B-specific signature genes (nCounter): a minor effect, if any
  signature genes induced by CpG-A alone or by both CpG-A and -B (nCounter): repressed
[14]; CpG-A stimulation or EMCV infection (MOI 10)
  transcription of mRNAs for Ifnb1, Ifna2 and Cxcl10: nearly abrogated
[14]; CpG-B
  Cxcl1 mRNA: moderately increasing
  Cxcl10 mRNA: decreased

## COc1ccc(Br)cc1/C=c1\sc2nc(=O)c(C)nn2c1=O [Poloxipan]
[1]; BMDCs, LPS
  transcription of mRNAs for antiviral cytokines (Ifnb1, Cxcl10): abrogate
